Results reported in PMC11381475, “Biopharmaceutical profiling of anti-infective sanggenons from Morus alba root bark for inhalation administration” (International Journal of Pharmaceutics: X, 2024).
Values after ≈ are worked out from the molar mass of the structure shown. Read-outs that look alike come from different tables or passages of the source.

Experiments:
[1] = potentiometric logP, water-octanol (SiriusT3); assay type: physicochemical; conditions: octanol/water, experimental, mean ± S.D., n = 3, read-out: logP
Description: LogP (partition coefficient) evaluation was performed via SiriusT3. The potentiometric logP measurement relies on assessing the partition profile of the test substance within a two-phase water-octanol solvent system. Changes in the relative volume ratio of octanol to water lead to shifts in the apparent pKa, resulting from the partitioning between non-ionised and ionised forms. LogP values were then estimated based on these assessments.

[2] = tested on: Calu-3 cells; experiment: Calu-3 cell uptake, FIA-TOFMS; assay type: in vitro ADME, human; conditions: 50 µg/mL; for Concentration [pg/µL] 1 in cell extract / Normalized concentration [pg/cell] 1: replicate 1; for Concentration [pg/µL] 2 in cell extract / Normalized concentration [pg/cell] 2: replicate 2; for Concentration [pg/µL] 3 in cell extract / Normalized concentration [pg/cell] 3: replicate 3
Description: At 4, 12, and 24 h after addition, cell extracts were generated in triplicates. To that end, the medium was aspirated from the respective wells, and cells were washed with pre-warmed ammonium carbonate solution (75 mM, pH 7.4, 37 °C). Immediately after removal of the wash solvent, 300 μL cold extraction solvent (40:40:20 acetonitrile:methanol:water, −20 °C) was added per well to lyse cells in situ and stop the enzymatic activity. The bottom of each well was subsequently scraped and the cell extracts were transferred to 96-well storage plates and stored at −80 °C until analysis. […] Quantification of SGC and SGD was performed using flow-injection time-of-flight mass spectrometry (FIA-TOFMS) in negative ion mode as described previously ([Fuhrer et al., 2011]). SGC and SGD signals were identified by matching accurate masses (for both [M-H]- at 707.2127 m/z). To account for possible influences of the complex matrix in the cell extract samples, a matrix-matched series of calibration samples were prepared, in which increasing concentrations of SGC were spiked into extracts of cells that had not previously been treated with either SGC or SGD. The calibration samples were injected alongside the cell extract samples and used to establish a calibration function using linear regression. The ion intensities measured were converted into SGC and SGD concentrations and normalized by the cell number in each sample, which was determined at each time point in separate cell cultures using trypan blue staining and cell counting in a Thermo Fisher Countess II Automated cell counter after trypsin-mediated cell detachment. This procedure eventually yielded estimates of SGC and SGD contents in pg/cell.

[3] = pH-dependent thermodynamic solubility, miniaturized shake-flask method, UPLC-PDA; conditions: for solubility thermodynamic at 24 h: 24 °C, thermodynamic from solid
[4] = tested on: Calu-3 monolayer
[5] = tested on: Calu-3 monolayer; remark: listed apart in the source
[6] = Calu-3 cell viability, MTT assay; conditions: human
[7] = UV-metric pKa measurement (SiriusT3); assay type: physicochemical; conditions: experimental, SiriusT3, 25 °C, mean ± S.D.
Description: Experimental pKa (−log10 of the acid dissociation equilibrium constant) values of SGC and SGD were evaluated using the UV-metric pKa measurement method of the SiriusT3 automated titrator instrument and the corresponding software SiriusT3Control and SiriusT3Refine (Pion Inc., Billerica, USA). The SiriusT3 apparatus uses a deuterium lamp to determine the UV/Vis absorbance spectrum of the test solutions at each pH point. The standard aqueous UV-metric pKa measurement protocol was conducted according to manufacturer instructions. […] This was mixed with 25 μL phosphate buffer (14.7 mM K2HPO4 and 0.15 M KCl in MilliQ water) and diluted with 1.5 mL ionic strength-adjusted water (ISA water ≡ 0.15 M KCl in MilliQ water). The subsequent acid/base titration and measurement of UV absorbance was automatically performed by the SiriusT3 at 25.0 ± 0.5 °C. […] Turbidity was monitored by a turbidity sensor to ensure the absence of precipitation of the test compounds during the experiment, since accurate pKa measurements are limited to fully dissolved substances. In case turbidity occurred, individual titrations were not used for further analysis, resulting in a total of 11 analysable titrations across the 5 replicate samples for both SGC and SGD.

[8] = tested on: SARS-CoV-2; set-up: method as in Wasilewicz et al., 2023; conditions: reported to be based on inhibition of the viral main protease, ref Wasilewicz et al., 2023; read-out: anti-SARS-CoV-2 activity IC50; cited from earlier work
[9] = tested on: lung epithelial monolayers; conditions: cited from earlier work
[10] = tested on: Calu-3 monolayer; remark: listed apart in the source

## CC(C)=CC[C@]12Oc3cc(O)c([C@H]4C=C(C)C[C@H](c5ccc(O)cc5O)[C@H]4C(=O)c4ccc(O)cc4O)c(O)c3C(=O)[C@@]1(O)Oc1cc(O)ccc12 [SGC, sanggenon C]
[1]
  logP: 3 to 3.5
[2]; 4 h
  intracellular content, Mean [pg/cell]: 2.0 ± 0.1 pg/cell
  Concentration [pg/µL] 1 in cell extract: 4284 pg/µL
  Normalized concentration [pg/cell] 1: 2.09 pg/cell
  Concentration [pg/µL] 2 in cell extract: 3851 pg/µL
  Normalized concentration [pg/cell] 2: 1.88 pg/cell
  Concentration [pg/µL] 3 in cell extract: 3902 pg/µL
  Normalized concentration [pg/cell] 3: 1.90 pg/cell
[2]; 4 h, listed as Sanggenon C
  intracellular content, Mean [pg/cell]: 1.96 pg/cell
[2]; 12 h
  intracellular content, Mean [pg/cell]: 5.54 pg/cell
  Concentration [pg/µL] 1 in cell extract: 13620 pg/µL
  Normalized concentration [pg/cell] 1: 5.77 pg/cell
  Concentration [pg/µL] 2 in cell extract: 13397 pg/µL
  Normalized concentration [pg/cell] 2: 5.67 pg/cell
  Concentration [pg/µL] 3 in cell extract: 12248 pg/µL
  Normalized concentration [pg/cell] 3: 5.19 pg/cell
[2]; 24 h
  intracellular content, Mean [pg/cell]: 8.1 ± 0.3 pg/cell
  Concentration [pg/µL] 1 in cell extract: 17926 pg/µL
  Normalized concentration [pg/cell] 1: 8.34 pg/cell
  Concentration [pg/µL] 2 in cell extract: 16862 pg/µL
  Normalized concentration [pg/cell] 2: 7.85 pg/cell
  Concentration [pg/µL] 3 in cell extract: 17411 pg/µL
  Normalized concentration [pg/cell] 3: 8.11 pg/cell
[2]; 24 h, listed as Sanggenon C
  intracellular content, Mean [pg/cell]: 8.10 pg/cell
[3]; HCl buffer, pH 1.2, simulated gastric fluid
  solubility thermodynamic at 24 h: 4.47 µg/mL (≈ 6.31 µM)
[3]; acetate buffer, pH 4.5, aqueous buffer
  solubility thermodynamic at 24 h: 8.53 µg/mL (≈ 12 µM)
[3]; compound within extract MA21, pH 1.2
  pH 1.2 solubility: < LOQ
[3]; compound within extract MA21, pH 4.5
  pH 4.5 solubility: < LOQ
[3]; compound within extract MA21, pH 6.8
  pH 6.8 solubility: 4.05 µg/mL
[3]; compound within extract MA21, pH 7.4
  pH 7.4 solubility: 3.24 µg/mL
[3]; compound within extract MA60, pH 1.2
  pH 1.2 solubility: 6.88 µg/mL
[3]; compound within extract MA60, pH 4.5
  pH 4.5 solubility: < LOQ
[3]; compound within extract MA60, pH 6.8
  pH 6.8 solubility: 12.7 µg/mL
[3]; compound within extract MA60, pH 7.4
  pH 7.4 solubility: 13.6 µg/mL
[3]; phosphate buffer, pH 6.8, aqueous buffer
  solubility thermodynamic at 24 h: 18.5 µg/mL (≈ 26.1 µM)
[3]; phosphate buffer, pH 7.4, aqueous buffer
  solubility thermodynamic at 24 h: 47.1 µg/mL (≈ 66.5 µM)
[4]
  evidence for permeability of SGC or SGD: Neither by applying the isolated compounds nor the extracts MA60 and MA21, any evidence for the permeability of SGC or SGD was detectable
  permeability across intact Calu-3 monolayers: no measurable permeability
[5]
  change in TEER during permeability study, B-A direction: a decrease in TEER values was also observed
[6]
  CC50 at 24 h: 47.8 µg/mL (≈ 67.4 µM)
[7]; read-out: pKa 1
  pKa: 2.64 ± 0.69
[7]; read-out: pKa 2
  pKa: 5.2 ± 0.8
[7]; read-out: pKa 3
  pKa: 6.74 ± 0.14
[7]; read-out: pKa 4
  pKa: 7.97 ± 0.06
[7]; read-out: pKa 5
  pKa: 9 ± 0.04
[7]; read-out: pKa 6
  pKa: 9.84 ± 0.05
[7]; read-out: pKa 7
  pKa: 10.7 ± 0.02
[7]; read-out: pKa 8
  pKa: 12.05 ± 0.07
[8]
  IC50: 7.2 µM

## C[C@H]1[C@H](NC(=O)/C(=N\OC(C)(C)C(=O)O)c2csc(N)n2)C(=O)N1S(=O)(=O)O [aztreonam]
[9]
  Papp: 0.07 ± 0.02 × 10^−6 cm/s

## O=C1OC2(c3ccc(O)cc3Oc3cc(O)ccc32)c2ccccc21 [fluorescein]
[10]
  fluorescein permeation across Calu-3 monolayer: no fluorescein permeation was detected

## NC[C@H]1O[C@H](O[C@H]2[C@H](O)[C@@H](O[C@H]3O[C@H](CO)[C@@H](O)[C@H](N)[C@H]3O)[C@H](N)C[C@@H]2N)[C@H](N)C[C@@H]1O [tobramycin]
[9]
  Papp: < 5e-08 cm/s

## colistin
[9]
  Papp: 0.04 ± 0.02 × 10^−6 cm/s
